Experimental data taken from patent US20070015786A1, “Treatment of hot flashes, impulse control disorders and personality change due to a general medical condition” (Eli Lily and Company, priority 2003, published 2007).
Values joined by “and” are separate entries in the source; they are usually repeats but may differ in a detail not shown here. Equal values may be shown once.

System: ovariectomized Sprague-Dawley rats
Assay: Morphine withdrawal rat hot flush model (naloxone-induced tail skin temperature rise)
Format: in vivo
Conditions: for morphine withdrawal hot flush model responsive to agent: data not shown
Description: Simpkins et al. ((1983) Life Sci. 32:1957-1966) first published morphine withdrawal in the rat as a putative model for hot flushes, based on observations highlighting the similarity of symptoms of gonadal steroid withdrawal to those of opioid withdrawal. Although less severe, the signs and symptoms associated with clinical hot flushes, or estrogen deficiency, in the rat parallel those produced by naloxone-precipitated withdrawal in morphine dependent rats, including: 1) an increase in tail skin temperature; 2) a surge in luteinizing hormone; and 3) an increase in heart rate. Each of these responses is associated with an increase in sympathetic outflow, which is a current mechanistic hypothesis for hot flushes.
In this example, a modification of the original procedure of Simpkins et al. (1983) is used, employing ovariectomized Sprague-Dawley rats. Animals at 60 days of age (or 200-225 grams) are ovariectomized, and allowed a 14-day rest period to insure surgical recovery and clearance of endogenous ovarian hormones. Test compound administration (po or sc) is initiated on day 14 post-ovariectomy in a volume of 1 ml/kg. Once daily administration of test compounds continues through the end of the experiment. On days 15 and 17 post-ovariectomy, the rats are lightly anesthetized with isoflurane and a single 75 mg morphine (free base) pellet is surgically implanted subcutaneously.
On day 21 post-ovariectomy, animals are given ketamine (80 mg/kg; IM) 2 hours after final administration of the test compound. Following induction of the anesthesia, rats are then placed in individual plexiglass cages and temperature sensitive probes are applied to the dorsal side of the tail base. Temperature monitoring is initiated 30 minutes after administration of ketamine, and is recorded every 15 seconds for a 1-hr period. To induce morphine withdrawal, 1 mg/kg naloxone is given subcutaneously 15 minutes after start of temperature monitoring. A sharp rise in tail skin temperature typically occurs within 5 minutes post-naloxone injection, and two quantitative endpoints are made: 1) tail skin temperature at 15 minutes post-naloxone, and 2) area under the temperature response curve for the 45 minute post-naloxone measurement period.
Ethinyl estradiol is dosed orally at 0.3 mg/kg as a positive control. […] Using area under the curve measurements, the response induced by each compound is calculated as a percent inhibition of temperature increase versus the morphine control.

CCOc1ccccc1OC(c1ccccc1)C1CNCCO1 (racemic) [reboxetine]
% Inhibition vs. Morphine Control (rat, in vivo, sc, 5 mg/kg): 94%

CCOc1ccccc1OC(c1ccccc1)C1CNCCO1 [(R,S)-Reboxetine, (R,S)-reboxetine]
% Inhibition vs. Morphine Control (rat, in vivo, sc, 5 mg/kg): 94%

CNCCCN1c2ccccc2CCc2ccccc21 [Desipramine, desipramine]
% Inhibition vs. Morphine Control (PO, 10 mg/kg, area under the tail skin temperature curve, 45 min post-naloxone): 101% | % Inhibition vs. Morphine Control (PO, 10 mg/kg, area under the tail skin temperature curve, 45 min post-naloxone, listed as desipramine): 101%

C#C[C@]1(O)CC[C@H]2[C@@H]3CCc4cc(O)ccc4[C@H]3CC[C@@]21C [Ethinyl Estradiol, Ethinyl estradiol]
% Inhibition vs. Morphine Control (PO, 0.3 mg/kg, area under the tail skin temperature curve, 45 min post-naloxone): 89% and 73% and 90% | % Inhibition vs. Morphine Control (PO, 0.3 mg/kg, area under the tail skin temperature curve, 45 min post-naloxone, listed as Ethinyl estradiol): 70-90%

Clc1cccc(Cl)c1N=C1NCCN1 [clonidine]
morphine withdrawal hot flush model responsive to agent: responsive

C#C[C@]1(O)CC[C@H]2[C@@H]3[C@H](C)CC4=C(CCC(=O)C4)[C@H]3CC[C@@]21C [tibolone]
morphine withdrawal hot flush model responsive to agent: responsive

medroxyprogesterone
morphine withdrawal hot flush model responsive to agent: responsive
